Test results: PubChem BioAssay AID602378 (Sanford-Burnham Center for Chemical Genomics, 2012)
Active and inactive are the calls of the source. The rule behind the calls is not given here.

What follows are molecules tested on S. cerevisiae tim10-1 mutant yeast, luminescence growth read-out (assay: growth inhibition of tim10-1 mutant yeast, SAR follow-up, counter-screen for tim23-1 inhibitor project, luminescence, S. cerevisiae (AID 602378)).

Compound | IC50
COc1cc2c(cc1OC)/C(=C/c1ccc(Cl)cc1)C(=O)OC2 | 10.8 µM
Cc1csc(NC(=O)c2sc3nc4c(cc3c2N)CN(C)CC4)n1 | > 99 µM (inactive)
O=C(CSc1cccc[n+]1[O-])Nc1ccccc1Oc1ccccc1 | 0.949 µM
Cc1ccc2nc(CS(=O)(=O)c3ncccc3Cl)cc(=O)n2c1 | > 99 µM (inactive)
N/C(=N\OC(=O)c1ccc2ccccc2c1)c1ccc(I)cc1 | > 99 µM (inactive)
O=C(N/N=C/C(Cl)=C\c1ccccc1)c1cccs1 | 42.7 µM
CCCN(C(=O)c1ccc([N+](=O)[O-])c(C)c1)c1c(N)n(Cc2ccccc2)c(=O)[nH]c1=O | 1.08 µM
Cc1ccc2nc(CSc3ccc(S(=O)(=O)N4CCCC4)cn3)cc(=O)n2c1 | > 99 µM (inactive)
Cc1ccc(-c2nn(-c3ccccc3)cc2NC(=O)CCl)cc1 | 1.88 µM
Cc1nn(Cc2cccc(C(=O)O/N=C(\N)c3ccc(Cl)cc3)c2)c(C)c1Br | 1.51 µM
Cc1nc2scc(C)n2c(=O)c1S(=O)(=O)Nc1ccc(OC(F)(F)F)cc1 | 26.5 µM
O=C1OC(c2ccccc2)=N/C1=C\C=C\c1ccco1 | 3.62 µM
CCN(C(=O)c1cccc2ncccc12)c1c(N)n(Cc2ccccc2)c(=O)[nH]c1=O | > 99 µM (inactive)
N#Cc1c(-c2ccccc2)cc(-c2ccc(O)cc2)nc1N | 10.3 µM
O=c1cc(CSc2ccc(S(=O)(=O)N3CCOCC3)cn2)nc2ccc(Br)cn12 | 77.4 µM
CC(C)(C)c1csc(NC(=O)c2ccc(Cl)s2)n1 | 54.7 µM
CS(=O)(=O)Nc1ccc(/C(N)=N/OC(=O)c2ccccc2Cl)cc1 | > 99 µM (inactive)
O=c1cc(CSc2ccc(S(=O)(=O)N3CCCCC3)cn2)nc2ccc(Br)cn12 | > 99 µM (inactive)
Cc1nc2scc(C)n2c(=O)c1S(=O)(=O)Nc1ccccc1 | 66.9 µM
CN1CCc2nc3sc(C(=O)C45CC6CC(CC(C6)C4)C5)c(N)c3cc2C1 | 69.3 µM

Compound | IC50
CC(C)Cn1cnc2c(c(-c3ccccc3)c(-c3ccccc3)n2Cc2ccco2)c1=N | 16.8 µM
N/C(=N\OC(=O)c1ccc(Cl)cc1)c1ccc(Cl)cc1 | 1.1 µM
Cc1ccc(OCC(=O)O/N=C(\N)Cc2ccc(Cl)cc2)cc1 | 2.57 µM
NC(=O)C1CCN(c2nc(-c3cccnc3)nc3ccccc23)CC1 | > 99 µM (inactive)
Cc1ccc(/C(N)=N/OC(=O)c2ccccc2)cc1F | 1.12 µM
N/C(Cc1cccc2ccccc12)=N\OC(=O)COc1ccc(Cl)cc1Cl | 27.9 µM
N#C/C(=C\c1ccc(Cl)cc1)C(=O)Nc1cccnc1 | 25.6 µM
Cc1nc2scc(C)n2c(=O)c1S(=O)(=O)Nc1ccc(N2CCOCC2)cc1 | > 99 µM (inactive)
C=C1CCc2c([nH]c3ccc(OCC(C)C)cc23)C1=O | > 99 µM (inactive)
CCOc1cc2ccccc2cc1C(=O)O/N=C(\N)c1ccc(Cl)cc1 | 1.61 µM
CCCCOc1ccc(C(=O)O/N=C(\N)c2cccc(Br)c2)cc1 | 1.09 µM
Cc1nc2scc(C)n2c(=O)c1S(=O)(=O)Nc1ccc(N2CCN(S(C)(=O)=O)CC2)cc1 | > 99 µM (inactive)
O=C(Nc1ccc2nc(-c3ccc(Br)o3)[nH]c2c1)c1cccs1 | 24.6 µM
Cc1ccc(Nc2nc(-c3cccnc3)nc3ccccc23)cc1 | 14.1 µM
COc1ccc(/C=C/C(=O)Nc2ccc3c(c2)CCC3)cc1OC | 17.5 µM
Cc1ccc2nc(N3C(=O)CNC3=S)sc2c1 | 13 µM
Cc1nc2scc(C)n2c(=O)c1S(=O)(=O)Nc1ccc(N2CCN(C(=O)C(C)C)CC2)cc1 | > 99 µM (inactive)
N/C(=N\OC(=O)c1cccc2ccccc12)c1ccc(Cl)cc1 | 1.03 µM
CC1(C)C=Cc2cc(/C(N)=N/OC(=O)c3ccccc3)ccc2O1 | 0.66 µM
Nc1cccc(Oc2ccc(Oc3cccc(N)c3)cc2)c1 | > 99 µM (inactive)

Compound | IC50
N/C(=N\OC(=O)c1ccccc1)c1ccc(F)cc1F | 6.71 µM
COc1ccc(Cl)cc1NS(=O)(=O)c1c(C)nc2scc(C)n2c1=O | > 99 µM (inactive)
O=C(Nc1ccn[nH]1)c1cccc(OCc2cccnc2)c1 | > 99 µM (inactive)
Cc1nc2scc(C)n2c(=O)c1S(=O)(=O)Nc1cc(C(F)(F)F)ccc1Cl | > 99 µM (inactive)
O=C(Nc1nc2ccccc2s1)C1CCCN1S(=O)(=O)c1ccc(Cl)cc1 (stereo not given) | 13.1 µM
Cc1noc(C)c1S(=O)(=O)Nc1ccc(-c2cn3c(n2)SCC3)cc1 | > 99 µM (inactive)
Oc1ccc(Oc2ccc(Oc3ccc(O)cc3)cc2)cc1 | 25.6 µM
Cc1c2c(n(Cc3ccco3)c1C)N=CN1CCS(=O)(=O)N=C21 | > 99 µM (inactive)
CC(=O)c1ccc(NS(=O)(=O)c2c(C)nc3scc(C)n3c2=O)cc1 | > 99 µM (inactive)
Cc1nc2scc(C)n2c(=O)c1S(=O)(=O)Nc1ccc(N2CCOCC2)c(Cl)c1 | > 99 µM (inactive)
N/C(=N\OC(=O)c1ccc(Cl)cc1)c1cccc(CS(=O)(=O)c2ccccn2)c1 | 14 µM
O=C(CSCc1ccccc1)Nc1cc(S(=O)(=O)N2CCOCC2)ccc1Oc1ccccc1 | > 99 µM (inactive)
Cc1nc2scc(C)n2c(=O)c1S(=O)(=O)Nc1ccc(Oc2ccc(Cl)cc2)cc1 | > 99 µM (inactive)
CCOc1ccc(NS(=O)(=O)c2c(C)nc3scc(C)n3c2=O)cc1 | > 99 µM (inactive)
O=C(Nc1ccc(-c2cn3ccccc3n2)cc1)c1cccs1 | > 99 µM (inactive)
Cc1cc(OCC(=O)O/N=C(\N)Cc2ccc(Cl)cc2)ccc1Br | 3.28 µM
CC(=O)c1ccc2[nH]c3c(c2c1)CCCC3=O | > 99 µM (inactive)
Cc1nc2scc(C)n2c(=O)c1S(=O)(=O)Nc1cccc(O)c1 | > 99 µM (inactive)
CCOc1ccc2nc(N3C(=O)CNC3=S)sc2c1 | > 99 µM (inactive)
Cc1ccc(-c2nc3ccc(NC(=O)c4cccs4)cc3[nH]2)o1 | 16.4 µM
